Laboratory results: US6166290A, “Glutathione-S-conjugate transport in plants” (The Trustees of the University of Pennsylvania, priority 1997, dated 2000)
Read-outs that look alike come from different tables or passages of the source.

Key:
[1] = target: T1, YCF1 (vacuolar membrane vesicles purified from DTY165 cells) (Saccharomyces cerevisiae, UniProt P39109); assay: [3H]DNP-GS uptake by vacuolar membrane vesicles purified from DTY165 cells; format: biochemical; settings: for DNP-GS uptake plus the compound indicated: 3 mM MgATP (omitted with MgAMP-PNP), MgAMP-PNP 3 mM, bafilomycin A1 0.5 μM, FCCP 5 μM, gramicidin D 5 μM, NH4Cl 1 mM; for DNP-GS uptake as percentage of control plus the compound indicated: as Table 1 concentrations
T1 construct: endogenous in cells; host or cells: S. cerevisiae DTY165 (wild type YCF1), vacuolar membrane vesicles
Experimental: (§1) For the routine preparation of vacuolar membrane vesicles, 15 ml of stationary phase cultures of DTY165 or DTY167 were diluted into 1-liter volumes of fresh YPD medium, grown for 24 hours at 30° C. to an OD600 nm of approximately 0.8 and collected by centrifugation. After washing with distilled water, the cells were converted to spheroplasts with Zymolyase 20T (ICN) (Kim et al., 1994, supra) and intact vacuoles were isolated by flotation centrifugation of spheroplast lysates on Ficoll 400 step gradients as described by Roberts et al. (1991, Methods. Enzymol. 194:644-661). Both the spheroplast lysis buffer and Ficoll gradients contained 2 mg/ml bovine serum albumin, 1 μg/ml aprotinin, 1 μg/ml leupeptin, 1 μg/ml pepstatin, and 1 mM PMSF to minimize proteolysis. The resulting vacuole fraction was vesiculated in 5 mM MgCl2, 25 mM KCl, 10 mM Tris-Mes (pH 6.9) containing 2 mg/ml bovine serum albumin, 1 μg/ml aprotinin, 1 μg/ml leupeptin, 1 μg/ml pepstatin, and 1 mM PMSF, pelleted by centrifugation at 37,000× g for 25 min, and resuspended in suspension medium (1.1 M glycerol, 2 mM dithiothreitol, 1 mM Tris-EGTA, 2 mg/ml bovine serum albumin, 1 μg/ml aprotinin, 1 μg/ml leupeptin, 1 μg/ml pepstatin, 1 mM PMSF, 5 mM Tris-Mes, pH 7.6) (Kim et al., 1995, J. Biol. Chem. 270:2630-2635).
(§2) Unless otherwise indicated, [^3 H]DNP-GS uptake was measured at 25° C. in 200 μl reaction volumes containing 3 mM ATP, 3 mM MgSO4, 5 μM gramicidin-D, 10 mM creatine phosphate, 16 units/ml creatine kinase, 50 mM KC 1, 1 mg/ml bovine serum albumin, 400 mM sorbitol, 25 mM Tris-Mes (pH 8.0), and 66.2 μM [^3 H]DNP-GS (8.7 mCi/mmol) (Li et al., 1995, supra). […] Uptake was initiated by the addition of vacuolar membrane vesicles (10-15 μg of membrane protein), brief mixing of the samples on a vortex mixer and uptake was then allowed to proceed for 1-60 minutes. Uptake was terminated by the addition of 1 ml of ice-cold wash medium (400 mM sorbitol, 3 mM Tris-Mes, pH 8.0) and vacuum filtration of the suspension through prewetted Millipore HA cellulose nitrate membrane filters (pore diameter, 0.45 μm). The filters were rinsed twice with 1 ml of ice-cold wash medium and air-dried, and radioactivity was determined by liquid scintillation counting in BCS mixture (Amersham Corp.). Nonenergized [^3 H]DNP-GS uptake and extravesicular solution trapped on the filters were enumerated by the same procedure except that ATP and Mg^2 +were omitted from the uptake medium.

[2] = tested on: vacuolar membrane vesicles purified from DTY167 cells (ycf1Δ mutant); format: biochemical, Saccharomyces cerevisiae; settings: for DNP-GS uptake plus the compound indicated: 3 mM MgATP (omitted with MgAMP-PNP), MgAMP-PNP 3 mM, bafilomycin A1 0.5 μM, FCCP 5 μM, gramicidin D 5 μM, NH4Cl 1 mM; for DNP-GS uptake as percentage of control plus the compound indicated: as Table 1 concentrations
Experimental: as §1, §2

[3] = target: T1, YCF1 (vacuolar membrane vesicles purified from DTY165 cells); assay: biochemical; format: biochemical; settings: for 109Cd.GS2 uptake plus addition: 50 μM 109Cd.GS2, bafilomycin A1 0.5 μM, FCCP 5 μM, gramicidin-D 5 μM, NH4Cl 1 mM; for 109Cd.GS2 uptake as percentage of control: as Table 7 concentrations, 10 min; for decrease of MgATP-dependent Cd.GS2 uptake: text to Table 7
Experimental: (§3) In experiments involving cadmium transport, dithiothreitol and EGTA were removed from the suspension medium to prevent the attenuation of YCF1-dependent Cd^2+ transport otherwise exerted by these compounds. Vesiculated vacuolar membranes were subjected to three cycles of 50-fold dilution into simplified suspension medium (1.1 M glycerol, 5 mM Tris-Mes, pH 8.0), centrifugation at 100,000× g for 35 minutes and resuspension in the same medium before use.
(§4) Singly radiolabeled ^109 Cd.GSn and doubly radio-labeled ^109 Cd[^3 H].GS^n complexes were prepared by sequential gel-filtrationand anion-exchange chromatography of the reaction products generated by incubating 20 mM ^109 CdSO4 (78.4 mCi/mmol) with 40 mM GSH or 40 mM [^3 H]GSH (240 mCi/mmol) in 15 ml 10 mM phosphate buffer (pH 8.0) containing 150 mM KNO3 at 45° C. for 24 hours. For gel-filtration, 2 ml aliquots of the reaction mixture were applied to a column (40×1.5 cm ID) packed with water-equilibrated Sephadex G-1 5, eluted with deionized water and ^109 Cd and/or ^3 H in the fractions was measured by liquid scintillation counting. The fractions encompassed by each of the two ^109 Cd.GSn peaks identified were pooled, lyophilized and redissolved in 4 ml of loading buffer (5 mM Tris-Mes, pH 8.0). For anion-exchange chromatography, 0.5 ml aliquots of the resuspended lyophilizates from gel-filtration chromatography were applied to a Mono-Q HR5/5 column (Pharmacia) equilibrated with the same buffer. Elution was with a linear gradient of NaCl (0.5 ml/minute; 0-500 mM) dissolved in loading buffer. The individual fractions corresponding to the major peaks of ^109 Cd obtained from the Mono-Q column (one each for the peaks resolved by gel-filtration chromatography) were pooled, lyophilized and resuspended in 4 ml deionized water after liquid scintillation counting.
(§5) MgATP-energized, uncoupler-insensitive ^109 Cd^2+ uptake by vacuolar membrane vesicles was measured at 25° C. in 200 μl reaction volumes containing 3 mM ATP, 3 mM MgSO4, 5 μM gramicidin-D, 10 mM creatine phosphate, 16 units/ml creatine kinase, 50 mM KCl, 400 mM sorbitol, 25 mM Tris-Mes (pH 8.0) and the indicated concentrations of ^109 CdSO4, GSH or ^109 Cd- and/or ^3 H-labeled purified Cd.GSn complexes as described herein except that the wash media contained 100 μM CdSO4 in addition to sorbitol (400 mM) and Tris-Mes (3 mM, pH 8.0).

[4] = tested on: vacuolar membrane vesicles purified from DTY167 cells (ycf1Δ mutant); format: biochemical, Saccharomyces cerevisiae; settings: for 109Cd.GS2 uptake plus addition: 50 μM 109Cd.GS2, bafilomycin A1 0.5 μM, FCCP 5 μM, gramicidin-D 5 μM, NH4Cl 1 mM; for 109Cd.GS2 uptake as percentage of control: as Table 7 concentrations, 10 min
Experimental: as §3, §4, §5

[5] = 50 μM (as Cd), 5 μM gramicidin-D
[6] = 50 μM (as Cd), pretreated 1:4 with 2-ME, 60° C., 10 minutes
[7] = 5 μM gramicidin D, GSH, GSSG 1 mM, GS-conjugates 100 μM
[8] = 5 μM gramicidin D, GSH, GSSG 1 mM, GS-conjugates 100 μM, 10 min

T1 sequence (P39109 whole entry): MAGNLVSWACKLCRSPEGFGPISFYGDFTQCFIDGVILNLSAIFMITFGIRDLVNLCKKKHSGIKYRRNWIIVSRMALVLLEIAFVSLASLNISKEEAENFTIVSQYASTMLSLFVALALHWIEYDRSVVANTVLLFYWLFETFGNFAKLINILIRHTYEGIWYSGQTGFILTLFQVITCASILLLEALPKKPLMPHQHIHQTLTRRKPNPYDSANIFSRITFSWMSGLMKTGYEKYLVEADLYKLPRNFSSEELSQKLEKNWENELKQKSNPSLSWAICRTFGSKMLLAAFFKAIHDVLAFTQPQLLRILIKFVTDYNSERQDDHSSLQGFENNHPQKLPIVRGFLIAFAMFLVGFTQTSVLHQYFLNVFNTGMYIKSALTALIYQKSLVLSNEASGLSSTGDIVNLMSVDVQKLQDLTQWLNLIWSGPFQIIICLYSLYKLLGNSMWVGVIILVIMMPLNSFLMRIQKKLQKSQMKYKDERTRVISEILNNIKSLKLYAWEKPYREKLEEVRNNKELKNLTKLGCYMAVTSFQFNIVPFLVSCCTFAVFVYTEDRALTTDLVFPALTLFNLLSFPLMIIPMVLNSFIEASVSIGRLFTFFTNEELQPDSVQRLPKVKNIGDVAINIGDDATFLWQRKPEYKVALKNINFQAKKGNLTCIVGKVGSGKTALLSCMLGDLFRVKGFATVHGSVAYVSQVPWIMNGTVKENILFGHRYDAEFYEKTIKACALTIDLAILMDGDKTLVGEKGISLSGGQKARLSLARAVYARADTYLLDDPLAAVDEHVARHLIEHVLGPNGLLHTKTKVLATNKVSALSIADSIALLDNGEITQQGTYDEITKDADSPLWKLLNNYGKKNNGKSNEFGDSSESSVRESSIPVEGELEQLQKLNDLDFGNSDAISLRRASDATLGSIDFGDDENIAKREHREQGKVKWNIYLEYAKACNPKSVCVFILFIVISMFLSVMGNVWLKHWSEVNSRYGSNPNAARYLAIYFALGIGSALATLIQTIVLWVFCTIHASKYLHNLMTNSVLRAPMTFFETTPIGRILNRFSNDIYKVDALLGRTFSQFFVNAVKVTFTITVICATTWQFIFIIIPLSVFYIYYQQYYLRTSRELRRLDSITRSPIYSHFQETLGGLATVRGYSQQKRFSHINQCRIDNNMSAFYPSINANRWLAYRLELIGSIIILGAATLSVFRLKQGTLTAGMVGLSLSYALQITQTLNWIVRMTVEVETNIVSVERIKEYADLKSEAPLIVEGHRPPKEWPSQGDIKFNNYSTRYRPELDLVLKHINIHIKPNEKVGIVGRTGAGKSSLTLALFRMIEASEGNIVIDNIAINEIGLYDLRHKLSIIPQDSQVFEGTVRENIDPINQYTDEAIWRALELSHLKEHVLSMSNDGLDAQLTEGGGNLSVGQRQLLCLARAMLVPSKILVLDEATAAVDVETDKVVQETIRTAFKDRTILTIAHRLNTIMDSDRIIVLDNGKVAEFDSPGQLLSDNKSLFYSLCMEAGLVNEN

MgATP
Vmax(MgATP) of uncoupler-insensitive DNP-GS uptake ([1]; 66.2 μM DNP-GS, 5 μM gramicidin D): 38.4±5.6 nmol/mg/10 minutes
DNP-GS uptake as percentage of control, MgATP omitted ([1]; --MgATP, 66.2 μM DNP-GS): 2.8%
DNP-GS uptake, MgATP omitted ([1]; --MgATP, 66.2 μM DNP-GS): 2.2 ± 0.4 nmol/mg/10 minutes
Km ([1]; read-out: Km(MgATP) of uncoupler-insensitive DNP-GS uptake, 66.2 μM DNP-GS, 5 μM gramicidin D, 10 minutes): 86.5 ± 29.5 µM
DNP-GS uptake as percentage of control, MgATP omitted ([2]; --MgATP, 66.2 μM DNP-GS): 9.7%
DNP-GS uptake, MgATP omitted ([2]; --MgATP, 66.2 μM DNP-GS): 1.5 ± 0.6 nmol/mg/10 minutes

N[C@@H](CCC(=O)N[C@@H](C[S][Cd][S]C[C@H](NC(=O)CC[C@H](N)C(=O)O)C(=O)NCC(=O)O)C(=O)NCC(=O)O)C(=O)O [HMW-Cd.GS, bis(glutathionato)cadmium]
Vmax for MgATP-dependent, uncoupler-insensitive Cd.GS2 uptake [3]: 157.2±60.7 nmol/mg/10 minutes
109Cd.GS2 uptake, control ([3]; 50 μM 109Cd.GS2, no addition): 105.8 ± 12.4 nmol/mg/10 minutes
109Cd uptake of Mono-Q fraction [3, 5]: 66.3 ± 2.7 nmol/mg/10 min
109Cd uptake after 2-ME pretreatment [3, 6]: 11.9 ± 2.4 nmol/mg/10 min
Vmax for MgATP-dependent, uncoupler-insensitive Cd.GS2 uptake ([3]; listed as Cd.GS2): 157.2±30.4 nmol/mg/10 minutes
Km ([3]; read-out: Km for MgATP-dependent, uncoupler-insensitive Cd.GS2 uptake): 39.1 ± 14.1 µM
109Cd.GS2 uptake, control ([4]; 50 μM 109Cd.GS2, no addition): 17.3 ± 2.7 nmol/mg/10 minutes
109Cd uptake of Mono-Q fraction [4, 5]: 5.6 ± 2.6 nmol/mg/10 min
109Cd uptake after 2-ME pretreatment [4, 6]: 4.4 ± 3.0 nmol/mg/10 min

Cl.N [NH4 Cl, Ammonium chloride]
DNP-GS uptake plus the compound indicated ([1]; 66.2 μM DNP-GS): 69.1 ± 2.9 nmol/mg/10 minutes
DNP-GS uptake as percentage of control plus the compound indicated ([1]; 10 min): 88.9%
DNP-GS uptake plus the compound indicated ([2]; 66.2 μM DNP-GS): 14.9 ± 0.7 nmol/mg/10 minutes
DNP-GS uptake as percentage of control plus the compound indicated ([2]; 10 min): 96.8%
109Cd.GS2 uptake plus addition [3]: 89.8 ± 8.2 nmol/mg/10 minutes
109Cd.GS2 uptake as percentage of control [3]: 84.8%
decrease of MgATP-dependent Cd.GS2 uptake [3]: 15%
109Cd.GS2 uptake plus addition [4]: 10.0 ± 1.7 nmol/mg/10 minutes
109Cd.GS2 uptake as percentage of control [4]: 57.8%

[N-]=[N+]=Nc1ccc(C(=O)CSC[C@H](NC(=O)CC[C@H](N)C(=O)O)C(=O)NCC(=O)O)cc1 [Azidophenacyl-GS]
MgATP-dependent, uncoupler-insensitive DNP-GS uptake plus compound [1, 7]: 16.0 ± 1.4 nmol/mg/10 minutes
MgATP-dependent, uncoupler-insensitive DNP-GS uptake as percentage of control [1, 8]: 33.5%
inhibition of DNP-GS uptake ([1]; 100 μM compound): about 50%
MgATP-dependent, uncoupler-insensitive DNP-GS uptake plus compound [2, 7]: 5.2 ± 0.3 nmol/mg/10 minutes
MgATP-dependent, uncoupler-insensitive DNP-GS uptake as percentage of control [2, 8]: 80.0%

OCCS [2-mercaptoethanol]
inhibition of Cd2+ uptake by pretreatment of HMW-Cd.GS ([3]; pretreatment with 2-mercaptoethanol): > 80%

CO/C1=C\C(C)=C\[C@@H](C)[C@@H](O)[C@@H](C)C/C(C)=C/C=C/[C@H](OC)[C@@H]([C@@H](C)[C@@H](O)[C@H](C)[C@@]2(O)C[C@@H](O)[C@H](C)[C@@H](C(C)C)O2)OC1=O [Bafilomycin A1]
DNP-GS uptake plus the compound indicated ([1]; 66.2 μM DNP-GS): 43.2 ± 1.0 nmol/mg/10 minutes
DNP-GS uptake as percentage of control plus the compound indicated ([1]; 10 min): 55.6%
DNP-GS uptake plus the compound indicated ([2]; 66.2 μM DNP-GS): 4.3 ± 0.3 nmol/mg/10 minutes
DNP-GS uptake as percentage of control plus the compound indicated ([2]; 10 min): 27.9%
109Cd.GS2 uptake plus addition [3]: 81.8 ± 6.0 nmol/mg/10 minutes
109Cd.GS2 uptake as percentage of control [3]: 76.6%
decrease of MgATP-dependent Cd.GS2 uptake [3]: 22%
109Cd.GS2 uptake plus addition [4]: 12.8 ± 3.6 nmol/mg/10 minutes
109Cd.GS2 uptake as percentage of control [4]: 74.0%
